According to article PMC12291851, “Hydrogen Sulfide (H2S)-Donating Formyl Peptide Receptor 2 (FPR2) Agonists: Design, Synthesis, and Biological Evaluation in Primary Mouse Microglia Culture” (Antioxidants, 2025):

Experiments:
FPR2 [1] = biological target: T1, FPR2 (Homo sapiens, UniProt P25090); test: FPR2 desensitization: inhibition of WKYMVM-induced Ca2+ mobilization in FPR2-HL60 cells; type: cell-based; design: expressed in transfected cells; host or cells: HL-60 cells; settings: 10 min preincubation, then 5 nM WKYMVM
T1 sequence (P25090 1-351): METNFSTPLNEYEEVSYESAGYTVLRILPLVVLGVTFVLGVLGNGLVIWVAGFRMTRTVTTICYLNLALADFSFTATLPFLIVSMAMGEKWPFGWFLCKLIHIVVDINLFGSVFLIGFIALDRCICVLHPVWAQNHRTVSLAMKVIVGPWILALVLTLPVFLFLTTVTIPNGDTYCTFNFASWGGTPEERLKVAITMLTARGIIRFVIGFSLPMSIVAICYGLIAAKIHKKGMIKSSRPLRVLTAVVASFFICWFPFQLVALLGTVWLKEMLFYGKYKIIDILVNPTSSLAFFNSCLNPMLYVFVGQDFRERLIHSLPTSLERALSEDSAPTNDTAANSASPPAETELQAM
From the text: Finally, we assessed the ability of compounds to induce receptor desensitization at FPR2 by measuring the inhibition of Ca^2+ mobilization induced by subsequent treatment with a standard FPR2 agonist (IC50, Table 1) because FPR2 undergoes homologous desensitization after stimulation with agonists, resulting in functional antagonism (IC50, Table 1). […] We also evaluated the effects of the thiourea and thioamide derivatives on Ca^2+ mobilization in FPR1-HL60-transfected cells after stimulation with the FPR1 agonist (IC50, Table 1).

IL-10 = IL-10 ELISA in medium of microglial cultures; type: cell-based, mouse; settings: 1 μM pretreatment 1 h, then LPS 0.1 μg/mL 24 h
Method: (§1) Primary microglial cell cultures were derived from the cortices of 1–2-day-old mouse pups (1pup/1 brain/1 flask). After decapitation, the brains were extracted and immediately placed in cold Hanks’ Balanced Salt Solution (HBSS, Gibco, New York, NY, USA) on ice. The brains were washed at least three times with 7 mL of HBSS and then transferred to 10 mL of fresh culture media consisting of Dulbecco’s Modified Eagle Medium (DMEM) with GlutaMax and high glucose (4.5 g/L) (Gibco, New York, NY, USA) on ice. The tissue was minced and incubated in HBSS containing glucose, bovine serum albumin (BSA; Sigma-Aldrich, St. Louis, MO, USA), and HEPES (Gibco, New York, NY, USA) with 0.025% trypsin at 37 °C for 20 min. […] The purity of microglial cell cultures was assessed as we have shown previously. […]
(§2) To assess the effect of test compounds on IL-18, IL-6, and IL-10 levels, the medium of microglial cell cultures was collected 24 h after LPS treatment. The protein levels of the cytokines IL-18 (Mouse interleukin 18 ELISA kit), IL-6 (Mouse interleukin 6 ELISA kit), and IL-10 (Mouse interleukin 10 ELISA kit; all obtained from FineTest, Wuhan, China) were measured using commercially available enzyme-linked immunosorbent assay kits according to the manufacturer’s instructions. […]

IL-6 = IL-6 ELISA in medium of microglial cultures; type: cell-based, mouse; settings: 1 μM pretreatment 1 h, then LPS 0.1 μg/mL 24 h
Method: as §1, §2

FPR2 [2] = biological target: T1, FPR2; test: cell-based

Row | SMILES | Ca2+ Mobilization HL60-FPR2 IC50 (FPR2 desensitization) (FPR2 [1]) | IC50 (FPR2 [1]) [nM] | LPS-induced increase of IL-10 level (IL-10) | LPS-induced increase of IL-6 level (IL-6) | EC50 (FPR2 [2]) [nM]
1 | N#Cc1ccc(C[C@H](NC(=O)Nc2ccc(F)cc2)C(=S)N2CCc3ccccc32)cc1 [7b, (S)-1-[3-(4-Cyanophenyl)-1-(indolin-1-yl)-1-thioxopropan-2-yl]-3-(4-fluorophenyl)urea] | submicromolar concentration | 60 ± 20 | able to counterbalance the LPS-induced increase | able to counterbalance the LPS-induced increase | 600 ± 200
2 | N#Cc1ccc(C[C@H](NC(=O)Nc2ccc(Br)cc2)C(=S)N2CCc3ccccc32)cc1 [8b, (S)-1-(4-Bromophenyl)-3-[3-(4-cyanophenyl)-1-(indolin-1-yl)-1-thioxopropan-2-yl]urea] | submicromolar concentration | 7 ± 3 | able to counterbalance the LPS-induced increase | able to counterbalance the LPS-induced increase | 40 ± 20
